Experimental findings from patent US20200163954A1 (Exelixis, Inc., priority 2014, published 2020) are described below.

Where two headings read alike, the source gives them in different places.

A short description of series [1]: PK parameters of cabozantinib and measured metabolites in human subjects. The format is in vivo. The settings on record: for AUC(0-inf) / Cmax / Tmax / AUC(0-t) / half-life: human, plasma, oral, 140 mg/day; for half-life: read-out: t1/2, apparent terminal elimination half-life (converted).
For series [2], the target named is T1, Flt-4 (Homo sapiens, UniProt P35916).
T1 construct: purchased EMD Millipore (Kinase Profiler service)
Kind of series: Kinase activity (EMD Millipore Kinase Profiler), Flt-4. The format is biochemical. The settings on record: class symbol; read-out: Flt-4 Std (IC50).

Series [3] is described as follows: Metabolite profiling in human plasma, urine and feces (mass balance study, [14C] cabozantinib). The format is in vivo. The settings on record: for Presence in pooled fecal sample, 0-72 hours post dose / Presence in pooled fecal sample, 144-192 hours post dose: human feces; for Peak on plasma radio-chromatograms: human plasma, one subject, single 175 mg oral dose of cabozantinib (L-malate salt) with [14C] cabozantinib. The protocol:
The objective of this study was to profile and identify metabolites of cabozantinib in human plasma, urine, and feces.
The plasma, urine, and fecal samples were collected from the 8 subjects for the metabolite profiling.
All samples were shipped to QPS LLC (Newark, Del.) and stored at −70° C. HPLC/tandem MS coupled with a radio flow-through detector (RFD) was used for metabolite profiling and identification for samples with sufficient levels of radioactivity.
HPLC fraction collection followed by counting with TopCount NXT™ was used for radioquantitation of plasma samples with sufficient levels of radioactivity. […] HPLC Method 1 was used for the analysis of pooled urine and fecal samples and individual plasma samples from different time points. […] HPLC Method 3 was used for pooled plasma samples.
For the investigation of co-eluting metabolites, nonradiolabeled plasma samples of six subjects were pooled, processed, and analyzed for pre-dose, 1-7, 8-96, and 120-336 hours post-dose. […] [^14C]
Radiolabeled and non-radiolabeled plasma samples were extracted employing the same method, using 1.0-2 mL plasma samples, depending on the volume available and radioactivity level of the samples. The supernatants were evaporated to dryness under a stream of nitrogen in an ambient water bath, and the residues were reconstituted in 0.35-0.5 mL of MeOH:ACN:water (10:20:70, v/v/v). The reconstituted samples were centrifuged at 15,000 rpm for 10 minutes. Aliquots of the supernatants were injected onto the HPLC system for analysis.
The radioactivity in pooled urine and reconstituted solution was counted using LSC, and the reconstitution recovery calculated. […] Each pooled urine sample was lyophilized, the residue was reconstituted in water:ACN:FA (80:20:0.1, v/v/v), and the reconstituted sample was centrifuged at 15,000 rpm for 10 min before analysis.
The supernatants were dried under a nitrogen stream, and the residues were reconstituted in water:ACN:FA (80:20:0.1, v/v/v). The reconstituted samples were centrifuged at 15,000 rpm for 10 min before analysis.
The system for metabolite profiling and identification (HPLC/MS/RFD) consisted of a HTC PAL autosampler, a Surveyor HPLC pump, a LTQ linear ion trap mass spectrometer, and a β-RAM Model 3 RFD. The data obtained by mass spectrometry and RFD were processed by Xcalibur and Laura Lite 3 software, respectively. The HPLC eluent was split between the RFD and mass spectrometer with a ratio of 3 to 1. The following are the summary of the conditions for HPLC, mass spectrometer, and RFD.
For plasma samples, percent of total radioactivity in the sample for each peak at each time point was calculated and converted to ng/mL.

The target of series [4] is T2, c-Met (Homo sapiens, UniProt P08581).
T2 construct: purchased EMD Millipore (Kinase Profiler service)
In words: Kinase activity (EMD Millipore Kinase Profiler), c-Met. The settings on record: class symbol; read-out: c-Met Std (IC50). The format is biochemical.

The target of series [5] is T3, KDR (Homo sapiens, UniProt P35968).
T3 construct: purchased EMD Millipore (Kinase Profiler service)
In words: Kinase activity (EMD Millipore Kinase Profiler), KDR. Format: biochemical. The settings on record: class symbol; read-out: KDR Std (IC50).

For series [6], the target named is T4, Flt-3 (Homo sapiens, UniProt P36888).
T4 construct: purchased EMD Millipore (Kinase Profiler service)
T4 sequence (P36888 27-993): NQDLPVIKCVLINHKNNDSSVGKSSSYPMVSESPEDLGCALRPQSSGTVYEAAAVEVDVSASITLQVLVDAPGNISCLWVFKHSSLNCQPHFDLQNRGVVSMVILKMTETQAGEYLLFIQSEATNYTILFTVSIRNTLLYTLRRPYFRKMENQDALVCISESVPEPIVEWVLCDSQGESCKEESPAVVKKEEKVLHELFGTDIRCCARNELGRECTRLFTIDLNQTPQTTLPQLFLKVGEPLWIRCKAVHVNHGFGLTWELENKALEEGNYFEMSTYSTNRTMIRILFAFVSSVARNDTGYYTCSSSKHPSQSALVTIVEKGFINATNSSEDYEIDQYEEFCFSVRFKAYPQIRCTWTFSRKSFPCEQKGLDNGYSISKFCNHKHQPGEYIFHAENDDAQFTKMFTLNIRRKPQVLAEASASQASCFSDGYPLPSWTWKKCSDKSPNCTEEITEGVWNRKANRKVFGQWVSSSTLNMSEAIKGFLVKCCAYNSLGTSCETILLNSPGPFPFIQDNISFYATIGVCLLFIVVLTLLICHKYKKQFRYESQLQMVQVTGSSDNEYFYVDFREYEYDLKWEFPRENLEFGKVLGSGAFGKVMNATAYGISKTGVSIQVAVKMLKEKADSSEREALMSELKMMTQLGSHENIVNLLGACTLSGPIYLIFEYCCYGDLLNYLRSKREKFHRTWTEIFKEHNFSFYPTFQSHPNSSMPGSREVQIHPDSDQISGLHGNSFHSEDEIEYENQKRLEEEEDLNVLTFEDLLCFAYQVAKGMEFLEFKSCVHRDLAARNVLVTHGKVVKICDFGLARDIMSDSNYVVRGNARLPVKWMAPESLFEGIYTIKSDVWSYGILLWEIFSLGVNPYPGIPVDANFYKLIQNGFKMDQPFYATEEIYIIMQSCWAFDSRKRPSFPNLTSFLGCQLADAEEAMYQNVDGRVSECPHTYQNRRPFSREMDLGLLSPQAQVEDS
In words: Kinase activity (EMD Millipore Kinase Profiler), Flt-3. The note with it: class symbol; read-out: Flt-3 Std (IC50). The format is biochemical.

Where [7] appears, read: eight human subjects, cabozantinib 140 mg/day, time zero to 24 hours post dose, read-out: AUC0-24.
[8] abbreviates: eight human subjects, cabozantinib 140 mg/day, time zero to 72 hours post dose, read-out: AUC0-72.
Where [9] appears, read: eight human subjects, cabozantinib 140 mg/day, time zero to last measurable concentration, read-out: AUC0-t.
Where [10] appears, read: HPLC Method 1, single 175 mg oral dose.
The mark [11] stands for this setting: human urine, HPLC Method 1, single 175 mg oral dose.

T3 sequence (P35968 20-1356): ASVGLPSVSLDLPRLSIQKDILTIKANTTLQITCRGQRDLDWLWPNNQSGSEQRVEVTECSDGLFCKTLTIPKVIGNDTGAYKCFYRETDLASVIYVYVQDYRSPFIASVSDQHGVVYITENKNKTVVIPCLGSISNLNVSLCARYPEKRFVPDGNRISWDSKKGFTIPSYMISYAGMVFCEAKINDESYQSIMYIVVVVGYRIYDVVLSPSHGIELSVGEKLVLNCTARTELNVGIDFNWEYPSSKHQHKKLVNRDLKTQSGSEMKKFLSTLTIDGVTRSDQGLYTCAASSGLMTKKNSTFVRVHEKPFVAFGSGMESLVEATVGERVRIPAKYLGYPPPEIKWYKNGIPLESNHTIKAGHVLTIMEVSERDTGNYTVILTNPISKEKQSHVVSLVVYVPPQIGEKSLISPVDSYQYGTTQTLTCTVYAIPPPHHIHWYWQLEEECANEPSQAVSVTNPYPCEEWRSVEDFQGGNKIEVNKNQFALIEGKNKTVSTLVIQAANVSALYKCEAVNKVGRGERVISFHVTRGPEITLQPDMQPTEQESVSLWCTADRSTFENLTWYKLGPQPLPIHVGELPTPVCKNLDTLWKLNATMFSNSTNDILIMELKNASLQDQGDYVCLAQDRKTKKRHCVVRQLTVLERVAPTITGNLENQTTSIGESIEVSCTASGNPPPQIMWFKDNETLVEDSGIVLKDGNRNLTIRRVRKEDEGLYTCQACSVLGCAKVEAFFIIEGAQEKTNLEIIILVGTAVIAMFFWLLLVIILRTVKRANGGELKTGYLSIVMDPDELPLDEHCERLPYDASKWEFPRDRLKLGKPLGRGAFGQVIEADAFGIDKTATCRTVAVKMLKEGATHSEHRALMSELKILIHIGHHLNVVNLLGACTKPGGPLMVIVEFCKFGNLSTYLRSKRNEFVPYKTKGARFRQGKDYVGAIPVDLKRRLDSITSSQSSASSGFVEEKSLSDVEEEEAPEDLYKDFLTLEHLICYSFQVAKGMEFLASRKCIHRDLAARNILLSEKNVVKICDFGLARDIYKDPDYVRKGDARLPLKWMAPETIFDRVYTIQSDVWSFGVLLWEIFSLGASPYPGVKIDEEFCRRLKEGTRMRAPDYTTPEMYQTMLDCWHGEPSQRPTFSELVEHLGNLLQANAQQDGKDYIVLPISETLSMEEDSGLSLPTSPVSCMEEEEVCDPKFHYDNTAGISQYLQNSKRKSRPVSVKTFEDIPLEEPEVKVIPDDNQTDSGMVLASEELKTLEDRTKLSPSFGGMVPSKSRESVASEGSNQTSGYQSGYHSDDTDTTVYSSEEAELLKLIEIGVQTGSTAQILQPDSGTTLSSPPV
T2 sequence (P08581 25-1390): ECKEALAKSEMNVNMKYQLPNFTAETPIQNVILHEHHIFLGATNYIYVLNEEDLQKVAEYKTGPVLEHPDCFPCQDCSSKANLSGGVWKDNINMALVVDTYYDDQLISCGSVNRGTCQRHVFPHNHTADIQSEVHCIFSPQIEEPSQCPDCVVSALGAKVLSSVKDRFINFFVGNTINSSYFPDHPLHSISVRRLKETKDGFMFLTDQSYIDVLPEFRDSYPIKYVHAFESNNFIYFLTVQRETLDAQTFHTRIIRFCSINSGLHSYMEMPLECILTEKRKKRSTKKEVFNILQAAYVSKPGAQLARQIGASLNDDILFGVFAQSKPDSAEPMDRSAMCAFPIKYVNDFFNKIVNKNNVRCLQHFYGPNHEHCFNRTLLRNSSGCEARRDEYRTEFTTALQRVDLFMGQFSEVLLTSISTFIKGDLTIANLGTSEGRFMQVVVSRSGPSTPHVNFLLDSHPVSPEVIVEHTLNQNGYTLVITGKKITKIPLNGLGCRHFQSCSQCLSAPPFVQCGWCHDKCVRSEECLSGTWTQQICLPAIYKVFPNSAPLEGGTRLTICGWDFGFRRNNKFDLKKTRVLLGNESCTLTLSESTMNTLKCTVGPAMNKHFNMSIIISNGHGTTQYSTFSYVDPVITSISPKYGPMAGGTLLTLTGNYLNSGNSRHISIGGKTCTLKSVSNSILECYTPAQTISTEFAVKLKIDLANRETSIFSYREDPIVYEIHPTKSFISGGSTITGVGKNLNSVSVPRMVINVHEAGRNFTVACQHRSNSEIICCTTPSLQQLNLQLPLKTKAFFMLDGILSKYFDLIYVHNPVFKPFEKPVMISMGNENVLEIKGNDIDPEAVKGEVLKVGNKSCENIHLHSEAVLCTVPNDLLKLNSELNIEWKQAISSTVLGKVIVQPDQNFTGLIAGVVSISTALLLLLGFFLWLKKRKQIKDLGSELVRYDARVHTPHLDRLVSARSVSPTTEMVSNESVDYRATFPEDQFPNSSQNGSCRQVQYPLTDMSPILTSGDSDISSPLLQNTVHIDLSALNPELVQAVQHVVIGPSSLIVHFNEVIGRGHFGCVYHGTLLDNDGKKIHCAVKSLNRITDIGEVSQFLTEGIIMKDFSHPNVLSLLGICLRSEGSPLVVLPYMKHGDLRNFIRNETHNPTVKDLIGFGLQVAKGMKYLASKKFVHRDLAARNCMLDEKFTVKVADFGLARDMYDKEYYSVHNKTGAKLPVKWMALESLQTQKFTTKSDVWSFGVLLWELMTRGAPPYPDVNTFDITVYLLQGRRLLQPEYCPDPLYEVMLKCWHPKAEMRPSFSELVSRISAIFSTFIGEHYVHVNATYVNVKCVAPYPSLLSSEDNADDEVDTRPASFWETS
T1 sequence (P35916 25-1363): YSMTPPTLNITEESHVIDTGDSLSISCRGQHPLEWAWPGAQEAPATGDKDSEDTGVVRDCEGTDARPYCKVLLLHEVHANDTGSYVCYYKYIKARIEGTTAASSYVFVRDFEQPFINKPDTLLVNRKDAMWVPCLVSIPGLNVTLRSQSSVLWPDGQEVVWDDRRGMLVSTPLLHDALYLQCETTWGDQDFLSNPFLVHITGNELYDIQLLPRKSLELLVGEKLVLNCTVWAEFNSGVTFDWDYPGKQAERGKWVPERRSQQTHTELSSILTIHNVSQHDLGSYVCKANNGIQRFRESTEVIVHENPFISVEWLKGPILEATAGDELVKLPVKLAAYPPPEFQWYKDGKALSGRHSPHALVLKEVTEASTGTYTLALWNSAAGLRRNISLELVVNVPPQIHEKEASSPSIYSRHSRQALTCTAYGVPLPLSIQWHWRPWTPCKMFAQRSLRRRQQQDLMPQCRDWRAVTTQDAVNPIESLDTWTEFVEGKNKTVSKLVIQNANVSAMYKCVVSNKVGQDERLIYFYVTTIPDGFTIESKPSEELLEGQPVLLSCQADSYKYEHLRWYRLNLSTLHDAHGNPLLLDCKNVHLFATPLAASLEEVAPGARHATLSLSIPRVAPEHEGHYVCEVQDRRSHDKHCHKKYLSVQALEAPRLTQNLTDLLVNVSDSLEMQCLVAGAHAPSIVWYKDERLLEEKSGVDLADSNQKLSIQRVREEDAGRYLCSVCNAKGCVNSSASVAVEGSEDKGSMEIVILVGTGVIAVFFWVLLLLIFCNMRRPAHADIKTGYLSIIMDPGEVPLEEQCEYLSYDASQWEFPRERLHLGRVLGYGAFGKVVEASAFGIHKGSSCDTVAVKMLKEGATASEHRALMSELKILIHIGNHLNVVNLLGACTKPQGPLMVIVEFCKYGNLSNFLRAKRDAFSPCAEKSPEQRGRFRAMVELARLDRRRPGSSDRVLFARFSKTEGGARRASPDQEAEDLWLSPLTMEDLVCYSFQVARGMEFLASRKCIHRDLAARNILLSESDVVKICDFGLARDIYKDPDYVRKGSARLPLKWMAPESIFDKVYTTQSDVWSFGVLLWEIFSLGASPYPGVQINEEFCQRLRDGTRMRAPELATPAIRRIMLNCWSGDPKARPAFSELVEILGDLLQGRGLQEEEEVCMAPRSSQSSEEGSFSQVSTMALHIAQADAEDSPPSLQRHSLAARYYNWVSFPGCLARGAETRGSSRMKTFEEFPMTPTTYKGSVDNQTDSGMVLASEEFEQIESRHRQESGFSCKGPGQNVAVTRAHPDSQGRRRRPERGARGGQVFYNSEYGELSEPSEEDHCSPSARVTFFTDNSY

Broadly, the AUC(0-inf) is the area under the concentration-time curve extrapolated to infinity. Broadly, the Cmax is the maximum level reached in the sampled fluid or tissue. A word on the Tmax: it is the time from dosing to the highest level. For orientation: IC50 means the point on the concentration scale where inhibition reaches its midpoint. On to `COc1cc2nccc(Oc3ccc(NC(=O)C4(C(=O)Nc5ccc(F)cc5)CC4)cc3)c2cc1OC` [Cabozantinib, N-(4-{[6,7-bis(methyloxy)quinolin-4-yl]oxy}phenyl)-N′-(4-fluorophenyl)cyclopropane-1,1-dicarboxamide, reference compound], for which, in series [1] (eight human subjects, cabozantinib 140 mg/day), the “kel, apparent terminal elimination rate constant” value is 0.00712 ± 0.001 h⁻¹. Besides, in series [1], the AUC(0-inf) turned out to be 68000 ± 6910 ng·h/mL, the Cmax came out at 1250 ng/mL and the Tmax turned out to be 1.49 h. Further, the AUC(0-t) in series [1] (setting [7]) is 14300 ± 2600 ng·h/mL. In addition, in series [1] (setting [8]), the AUC(0-t) turned out to be 35000 ± 6770 ng·h/mL. Moreover, the AUC(0-t) in series [1] (setting [9]) stood at 67200 ± 6880 ng·h/mL. Besides, the IC50 in series [2] is < 50 nM. Further, the “Presence in pooled fecal sample, 0-72 hours post dose” value in series [3] (setting [10]) is “observed”. In addition, the “Peak on plasma radio-chromatograms” value in series [3] is given as “major peaks”. Also, the “Presence in urine samples” value in series [3] (human urine, all samples, single 175 mg oral dose) is “not observed”.

As for `COc1cc2nccc(Oc3ccc(N)cc3)c2cc1O` [Compound 1], in series [3] (setting [11]), the “Presence in pooled urine sample, 0-72 hours post dose” value is listed as “observed”; the “Presence in pooled urine sample, 144-192 hours post dose” value was “observed”; the “Presence in pooled urine sample, 288-336 hours post dose” value is listed as “detected”.

Regarding `COc1cc2nccc(Oc3ccc(NC(=O)C4(C(=O)O)CC4)cc3)c2cc1OC` [Compound 7, 1-[4-(6,7-Dimethoxy-quinolin-4-yloxy)-phenylcarbamoyl]-cyclopropane carboxylic Acid], in series [3] (setting [10]), the “Presence in pooled fecal sample, 0-72 hours post dose” value was “observed” and the “Presence in pooled fecal sample, 144-192 hours post dose” value is “observed”. In series [3], the “Peak on plasma radio-chromatograms” value was “one of the minor peaks”. In series [3] (setting [11]), the “Presence in pooled urine sample, 0-72 hours post dose” value was “observed” and the “Presence in pooled urine sample, 144-192 hours post dose” value is “observed”.

In the case of `COc1cc2nccc(Oc3ccc(NC(=O)C4(C(=O)Nc5ccc(F)c(O)c5)CC4)cc3)c2cc1OC` [Compound 13], the concentration for half-maximal inhibition (IC50) in series [4], in series [5] and in series [6] was < 50 nM each time.

For `COc1cc2nccc(Oc3ccc(NC(=O)C4(C(=O)Nc5ccc(F)cc5O)CC4)cc3)c2cc1OC` [Compound 16], the IC50 in series [4], in series [5] and in series [6] was < 50 nM each time. The “Presence in pooled fecal sample, 0-72 hours post dose” value in series [3] (setting [10]) is listed as “observed”. In addition, the “Presence in pooled fecal sample, 144-192 hours post dose” value in series [3] (setting [10]) is on record as “observed”.

For the compound `COc1cc2c(Oc3ccc(NC(=O)C4(C(=O)Nc5ccc(F)cc5)CC4)cc3)cc[n+]([O-])c2cc1OC` [Compound 19, Cabozantinib N-Oxide], the “Peak on plasma radio-chromatograms” value in series [3] is on record as “major peaks”. Moreover, in series [3] (setting [11]), the “Presence in pooled urine sample, 0-72 hours post dose” value is reported as “observed”.

`COc1cc2nccc(Oc3ccc(NC(=O)C4(C(=O)O)CC4)cc3)c2cc1OC` [drawing 45]: in series [1], the AUC(0-inf) turned out to be 6770 ng·h/mL, the Cmax came out at 52.9 ng/mL, the Tmax turned out to be 19 h and the half-life is 91.8 h. The AUC(0-t) in series [1] (setting [7]) came to 1080 ng·h/mL. For the same compound, in series [1] (setting [8]), the AUC(0-t) worked out at 3120 ng·h/mL. The AUC(0-t) in series [1] (setting [9]) is 6540 ng·h/mL.

Regarding `COc1cc2c(Oc3ccc(NC(=O)C4(C(=O)Nc5ccc(F)cc5)CC4)cc3)cc[n+]([O-])c2cc1OC` [drawing 46], in series [1], the AUC(0-inf) was 10300 ng·h/mL, the Cmax was 118 ng/mL, the Tmax worked out at 13.5 h and the half-life is 89.2 h. Further, in series [1] (setting [7]), the AUC(0-t) came out at 2030 ng·h/mL. For the same compound, the AUC(0-t) in series [1] (setting [8]) was found to be 5610 ng·h/mL. The AUC(0-t) in series [1] (setting [9]) stood at 10100 ng·h/mL.

Turning to `COc1cc2nccc(Oc3ccc(NC(=O)C4(C(=O)Nc5ccc(F)cc5OS(=O)(=O)O)CC4)cc3)c2cc1OC` [drawing 47], in series [1], the AUC(0-inf) came to 29500 ng·h/mL, the Cmax was determined as 236 ng/mL, the Tmax turned out to be 24 h and the half-life is 86 h. Also, the AUC(0-t) in series [1] (setting [7]) came out at 3970 ng·h/mL. Further, the AUC(0-t) in series [1] (setting [8]) was found to be 12600 ng·h/mL. Further, in series [1] (setting [9]), the AUC(0-t) worked out at 28900 ng·h/mL.
